Data reported in PMC5920098, “Identification of the allosteric P2X7 receptor antagonist [^11C]SMW139 as a PET tracer of microglial activation” (Scientific Reports, 2018).
“Also recorded” adds a separate entry of the source.

Assays:
[1] = molecular target: T1, human P2X7 receptor (hP2X7R) (Homo sapiens, UniProt Q99572); assay: In vitro autoradiography on rat brain cryosections locally overexpressing hP2X7R; conditions: co-incubation with blocker 10 µM, tracer 28 nM, n = 2
T1 sequence (Q99572 1-595): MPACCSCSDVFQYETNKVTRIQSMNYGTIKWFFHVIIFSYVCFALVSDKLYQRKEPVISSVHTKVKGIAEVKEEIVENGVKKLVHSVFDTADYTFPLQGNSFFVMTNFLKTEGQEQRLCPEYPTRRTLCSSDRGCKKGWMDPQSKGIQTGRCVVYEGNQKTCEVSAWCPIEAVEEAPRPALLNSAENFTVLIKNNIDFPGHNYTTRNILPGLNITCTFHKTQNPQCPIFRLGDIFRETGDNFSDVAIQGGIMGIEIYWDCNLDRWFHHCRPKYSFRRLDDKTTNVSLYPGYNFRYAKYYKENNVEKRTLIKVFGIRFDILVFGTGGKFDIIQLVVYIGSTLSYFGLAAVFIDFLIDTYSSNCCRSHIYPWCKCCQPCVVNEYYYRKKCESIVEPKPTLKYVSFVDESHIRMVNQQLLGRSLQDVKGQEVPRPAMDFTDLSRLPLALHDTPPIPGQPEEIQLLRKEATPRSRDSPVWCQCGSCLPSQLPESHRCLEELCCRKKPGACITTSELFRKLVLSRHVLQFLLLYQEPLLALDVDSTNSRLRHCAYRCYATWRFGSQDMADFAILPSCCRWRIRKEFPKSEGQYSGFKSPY
Experimental: Snap frozen brain tissue was cut on a cryostat into 20 μm sections.
Stereotactic injection of viral vector
Female Wistar rats (n=7) were anaesthetised by intraperitoneal (i.p.)
injection of ketamine (75 mg·kg-1); Ketalar, Pfizer, Brussels, Belgium) and medetomidin (1 mg·kg-1;
Domitor, Pfizer) and positioned in a stereotactic head frame (Stoelting, Wood Dale, IL, USA). Right and
left striatum were injected with 4 µL of the hP2X7R vector (rAAV_3flag-hP2X7R) and of the control
vector (rAAV_3flag-eGFP), respectively, at a rate of 0.25 µL·min-1, using a 30-gauge needle connected
to a 10 µL Hamilton syringe. Coordinates used for striatal injection of the hP2X7R vector were:
anteroposterior 0 cm, lateral -0.28 cm and dorsoventral -0.64 cm relative to bregma. Coordinates
used for striatal injection of the eGFP vector were: anteroposterior 0 cm, lateral +0.28 cm and
dorsoventral -0.64 cm relative to bregma. After injection, the needle was kept in place for another 5
minutes before removing it slowly. To reverse the anaesthesia, the rats were injected intraperitoneally
with 0.5 mg·kg-1 atipamezol (Antisedan, Orion Pharma, Newburry, Berkshire, UK).
Rats were sacrificed for in
vitro autoradiography at 3 (n=2) and 12 (n=5) weeks after vector injection.
Snap frozen brains of female Wistar rats (rAAV_3flag-hP2X7R in right striatum; rAAV_3flag-eGFP in left
striatum; sacrificed 3 weeks (n = 2) or 12 weeks (n = 5) after vector injection) were cut on a Leica
CM3050 S cryostat (Leica Biosystems, Nussloch, Germany) at -19 °C in transversal sections of 20 µm,
thaw-mounted on SuperFrostTM Plus (Thermo Fisher Scientific, Waltham, MA, USA) object glasses,
dried overnight on silica at 4 °C and then stored at -20 °C until use.
Upon use, sections were thawed to room temperature for an hour
before washing the sections in 5 mM Tris-HCl buffer (pH 7.4) at room temperature (3x 5 min). Sections
were dried in a cold stream of air before incubation (30 min) with 5 mM Tris-HCl buffer (pH 7.4)
concentration. After incubation, sections were washed (3x 1.5 min) in ice-cold 5 mM Tris-HCl buffer
(pH 7.4) followed by a dip in ice-cold demineralised water. Sections were dried in a stream of air and
then exposed to a storage phosphor screen (BAS-IP SR 2040 E, GE Healthcare Europe GmbH,
Eindhoven, the Netherlands) and the screen was read out on a Typhoon FLA 7000 phosphor imager
(GE Healthcare Europe GmbH, Eindhoven, the Netherlands).
quantified using ImageQuantTL Analysis Toolbox (version 8.1, GE Healthcare). In case of the rat brain
sections, regions of interest (ROIs) were defined around the striatum. […] Results are expressed as mean intensity, or as
percentage of tracer binding, relative to total tracer binding in the contralateral striatum. Experiments
with rAAV_3flag-hP2X7R injected rat brains were performed as a duplicate of quadruplicates.
Statistical analysis of quantitative autoradiography data (unpaired t test, two-tailed) was performed

[2] = Extended single microdose toxicity study in Wistar rats; type: in vivo
Experimental: A single microdose toxicity study for P2X7R antagonist SMW139 was performed according to EMEA guideline EMA/CPMP/ICH/286/1995 (December 2009) in healthy Wistar rats (male and female) at a dose of 0.12 mg·kg^−1. Rats were administered SMW139 or vehicle and parameters assessed post-dose were clinical signs and mortality, changes in body weight, food consumption, terminal haematology, coagulation and clinical chemistry parameters, gross pathology and organ weights. Further details are described in the Supplementary Information. […]
Extended single microdose toxicity study
A single microdose toxicity study according to EMEA guideline EMA/CPMP/ICH/286/1995 (December 2009) was performed in healthy Wistar rats at a 1000 times higher dose than the maximal dose […]
minimum specific activity of 18.5 GBq·µmol-1). Animals were allowed to acclimatise for 10 days, group-housed and in an enriched environment with food and water available ad libitum, and with a 12-hour light-dark cycle in a temperature controlled room. Post-dosing, animals were single-housed, but with the ability to communicate. SMW139 was formulated in 6.7% EtOH in acetate/citrate buffer (citric acid monohydrate (8 mg·mL-1), sodium citrate dehydrate (16 mg·mL-1) and sodium acetate trihydrate (7 mg ·mL-1); pH 5.2) with 2.5% Tween-80. Male and female Wistar rats (244-355 g; Charles River, Tranent, Edinburgh, United Kingdom) were injected intravenously via the tail vein under light isoflurane anaesthetics with formulated SMW139 (1 mL·kg-1, corresponding to a single dose of 0.12 mg·kg-1; female n = 10; male n = 10), or vehicle only (1 mL·kg-1; female n = 10; male n = 10) and animals were sacrificed 24 hours (SMW139; female n = 5; male n = 5; vehicle; female n = 5; male n = 5) or 14 days (SMW139; female n = 5; male n = 5; vehicle; female n = 5; male n = 5) post-dose by exsanguination

[3] = LogDoct,7.4 by shake-flask method (1-octanol / 0.2 M phosphate buffer pH 7.4); type: physicochemical; conditions: mean ± SD, read-out: LogDoct,7.4 (n = 3)
Experimental: The LogDoct,7.4 of analogues [^11C]1–3 and [^11C]SMW139 ([^11C]4) was determined using the shake-flask method (partitioning between 1-octanol and 0.2 M phosphate buffer (pH 7.4)). Determined LogDoct,7.4 values (Table 1) show the same trend as LogD values reported by Wilkinson et al.[10].
LogDoct,7.4 of [^11C]1–3 and [^11C]SMW139 was determined by the shake-flask method as described in the Supplementary Information.
Analytical HPLC chromatogram of [11C]SMW139 formulation (Platinum C18, MeCN/H2O/TFA 45:55:0.1, 1 […]
Determination of LogDoct,7.4
The distribution of radiolabelled compound between 1-octanol and 0.2 M phosphate buffer (pH = 7.4) was measured at room temperature. Briefly, 1 mL of a 20 MBq·mL-1 solution of radiolabelled compound in 0.2 M phosphate buffer (pH = 7.4) was mixed with 1 mL of 1-octanol for 1 min using a vortex mixer. After a settling period of 30 min, three samples of 100 μL were taken from both layers.
All samples were counted for radioactivity in a Wallac Universal Gammacounter 1282 (PerkinElmer, Waltham, MA, USA). The LogDoct,7.4 value was calculated according to LogDoct,7.4 = 10Log(Aoct/Abuffer), where Aoct and Abuffer represent average radioactivity counts of the three 1-octanol and the three […]
(1 picture or pasted object on this page, not shown here)

[4] = Ex vivo metabolite analysis (plasma and brain) in healthy male Wistar rats; design: species or system rat
Experimental: In vivo stability of analogues [^11C]1–3 and [^11C]SMW139 was assessed in healthy male Wistar rats at 15 and 45 minutes after injection of 30–40 MBq of formulated tracer. […] Results obtained in plasma correspond with previously reported stability results in rat liver microsomes. A higher level of intact tracer was found in brain (Table 3) for [^11C]1 and [^11C]SMW139 compared with [^11C]2 and [^11C]3. Despite optimisation of the extraction method, the percentage of total radioactivity that could be extracted from brain homogenates was not optimal for all four compounds (59 ± 6% for [^11C]1; 58 ± 7% for [^11C]2; 61 ± 4% for [^11C]3; 62 ± 3% for [^11C]SMW139). Therefore, based on its highest stability in plasma in vivo, [^11C]SMW139 was selected for further in vivo studies. As imaging studies were performed in female rats, plasma metabolites were also determined in two female rats, and no differences were found between plasma metabolism of [^11C]SMW139 in male and female rats (Table S1; Supplementary Information).
For each of the carbon-11 labelled benzamide analogues [^11C]1–3 and [^11C]SMW139, a biodistribution study and metabolite analysis in healthy male Wistar rats was performed, as described in detail in the Supplementary Information. Briefly, tracer distribution in blood, brain, and peripheral organs was measured at 5, 15, 30 and 45 min after intravenous injection of 13–23 MBq of formulated tracer. Metabolite analysis was performed at 15 and 45 min after intravenous injection of 30–40 MBq of formulated tracer in both blood plasma and brain. […]
Ex vivo metabolite analysis
Healthy male and female Wistar rats (254-440 g) were injected with 30-40 MBq (at start of experiment) of formulated tracer in the tail vein under isoflurane anaesthesia. Rats were sacrificed at 15 and 45 min (n = 3 per time point). Blood samples were obtained and the brain was excised. Blood samples were collected in heparin tubes (BD Vacutainer NH 119 I.U., 7 mL, BD Vacutainer Systems, Plymouth, UK) and centrifuged at 4,000 rpm for 5 min at 4 °C (Hettich Universal 32, Andreas Hettich GmbH & Co.KG, Tuttlingen, Germany). Plasma supernatant was separated from blood cells and loaded onto a tC18 Sep-Pak (Waters, Milford, MA, USA), followed by washing with 3 mL of water to obtain the polar fraction. The non-polar fraction was then eluted with 2 mL of MeOH and 1 mL of water and further analysed by HPLC. The brain was put in a falcon tube containing 4 mL MeCN/H2O (50:50 v/v) and homogenised with a disperser (IKA T18 B Ultra-Turrax, IKA®-Werke GmbH & Co.KG, Staufen, Germany) before centrifugation (5 min, 4,000 rpm, 20 °C, Hettich Universal 32). Supernatant was separated from brain precipitate and analysed by HPLC. Analytical HPLC was performed with Dionex (Sunnyvale, CA, USA) UltiMate 3000 HPLC equipment with Chromeleon software (version 6.8) on a Gemini C18 5-µm (10 x 250 mm) column (Phenomenex, Torrance, CA, USA) with gradient and a mixture of MeCN (A) and 0.1% DIPA in water (B) as eluent according to the following scheme: 0 min, […]
0.25 mL·min-1. All separate fractions were counted for radioactivity in a Wizard Gammacounter 1470 or 2480 (Wallac/PerkinElmer, Waltham, MA, USA).

[5] = rat plasma, 15 min p.i., male Wistar rats
[6] = rat plasma, 45 min p.i., male Wistar rats

| Compound | Block of [^11C]SMW139 binding in rAAV_3flag-hP2X7R striatum [1] | logD [3] | Intact tracer (%) ([4]; rat brain, 15 min p.i.) | Intact tracer (%) ([4]; rat brain, 45 min p.i.) | Intact tracer (%) [4, 5] | Intact tracer (%) [4, 6] | Food consumption ([2]; single i.v. dose 0.12 mg·kg^−1) | Haematology, coagulation and clinical chemistry parameters ([2]; single i.v. dose 0.12 mg·kg^−1) | Necropsy findings ([2]; single i.v. dose 0.12 mg·kg^−1) | Organ weights ([2]; single i.v. dose 0.12 mg·kg^−1) | Toxic / clinical effects ([2]; single i.v. dose 0.12 mg·kg^−1, male and female rats) | Body weight curves vs vehicle ([2]; single i.v. dose 0.12 mg·kg^−1, p ≥ 0.05) |
| --- | --- | --- | --- | --- | --- | --- | --- | --- | --- | --- | --- | --- |
| COc1ccc(CC(=O)NC(NC(=NC#N)Nc2cccc3ncccc23)C(C)(C)C)cc1OC (stereo not shown) [A-740003, N-(1-{[(Cyanoimino)(5-quinolinylamino)methyl]amino}-2,2-dimethylpropyl)-2-(3,4-dimethoxyphenyl)acetamide, reference compound] | 79 ± 10% |  |  |  |  |  |  |  |  |  |  |  |
| COc1ccc(Cl)c(C(=O)NCC23CC4(F)CC(F)(CC(F)(C4)C2)C3)c1 [SMW139] |  |  |  |  |  |  | stable in all groups | No treatment-related changes | no abnormalities suggesting a toxic effect | No significant differences in organ weights | no abnormalities, complications or toxic clinical effects were observed; also recorded: no adverse or toxic effects; also recorded: no toxic effects | did not differ between vehicle injected animals and animals injected with SMW139 |

The next lines start with results.

| Block of [^11C]SMW139 binding in rAAV_3flag-hP2X7R striatum [1] | logD [3] | Intact tracer (%) ([4]; rat brain, 15 min p.i.) | Intact tracer (%) ([4]; rat brain, 45 min p.i.) | Intact tracer (%) [4, 5] | Intact tracer (%) [4, 6] | Compound | Food consumption ([2]; single i.v. dose 0.12 mg·kg^−1) | Haematology, coagulation and clinical chemistry parameters ([2]; single i.v. dose 0.12 mg·kg^−1) | Necropsy findings ([2]; single i.v. dose 0.12 mg·kg^−1) | Organ weights ([2]; single i.v. dose 0.12 mg·kg^−1) | Toxic / clinical effects ([2]; single i.v. dose 0.12 mg·kg^−1, male and female rats) | Body weight curves vs vehicle ([2]; single i.v. dose 0.12 mg·kg^−1, p ≥ 0.05) |
| --- | --- | --- | --- | --- | --- | --- | --- | --- | --- | --- | --- | --- |
|  | 2.88 ± 0.14 | 82 ± 1% | 76 ± 2% | 37 ± 5% | 25 ± 1% | [11CH3]Oc1ccc(Cl)c(C(=O)NCC23CC4CC(CC(C4)C2)C3)c1 [[^11C]1] |  |  |  |  |  |  |
|  | 2.93 ± 0.02 | 67 ± 5% | 32 ± 4% | 37 ± 7% | 15 ± 2% | [11CH3]Oc1ccc(Cl)c(C(=O)NCC23CC4CC(CC(F)(C4)C2)C3)c1 [[^11C]2] |  |  |  |  |  |  |
|  | 2.71 ± 0.01 | 62 ± 2% | 32 ± 2% | 35 ± 1% | 16 ± 1% | [11CH3]Oc1ccc(Cl)c(C(=O)NCC23CC4CC(F)(CC(F)(C4)C2)C3)c1 [[^11C]3] |  |  |  |  |  |  |
